In article PMC7744152, “New potent steroid sulphatase inhibitors based on 6-(1-phenyl-1H-1,2,3-triazol-4-yl)naphthalen-2-yl sulphamate derivatives” (Journal of Enzyme Inhibition and Medicinal Chemistry, 2020):

Assays:
Type in all cases: biochemical
[1] = molecular target: T1, steroid sulphatase (STS) (Homo sapiens, UniProt P08842); experiment: radiolabelled [3H] oestrone sulphate hydrolysis, purified placental STS, […] inhibitor
T1 construct: STS enzyme extracted from human placenta and purified
T1 sequence (P08842 22-583): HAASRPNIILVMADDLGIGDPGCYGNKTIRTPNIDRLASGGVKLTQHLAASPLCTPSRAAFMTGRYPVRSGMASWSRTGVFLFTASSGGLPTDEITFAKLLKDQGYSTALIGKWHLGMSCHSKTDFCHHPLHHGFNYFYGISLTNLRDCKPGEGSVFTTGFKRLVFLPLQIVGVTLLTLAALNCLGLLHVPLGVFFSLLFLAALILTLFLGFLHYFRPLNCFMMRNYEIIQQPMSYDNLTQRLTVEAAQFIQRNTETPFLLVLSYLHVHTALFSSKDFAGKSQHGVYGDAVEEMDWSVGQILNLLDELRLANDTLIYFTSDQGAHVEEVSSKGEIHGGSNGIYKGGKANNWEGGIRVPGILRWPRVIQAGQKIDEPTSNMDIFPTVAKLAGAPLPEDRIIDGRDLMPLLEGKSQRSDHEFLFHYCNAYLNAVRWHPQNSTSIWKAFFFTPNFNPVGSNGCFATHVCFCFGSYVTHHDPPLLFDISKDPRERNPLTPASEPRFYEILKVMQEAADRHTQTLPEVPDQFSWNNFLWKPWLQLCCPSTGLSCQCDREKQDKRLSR

[2] = molecular target: T1, steroid sulphatase (STS); experiment: radiolabelled [3H] oestrone sulphate hydrolysis, purified placental STS, […] inhibitor (also MCF-7 cell IC50 […])
[3] = molecular target: T1, steroid sulphatase (STS); experiment: as above; remark: listed apart in the source
[4] = molecular target: T1, steroid sulphatase (STS); experiment: as above; remark: listed apart in the source

remaining activity at 0.5 µM [1] | SMILES | also measured
17.4% | NS(=O)(=O)Oc1ccc2cc(-c3cn(-c4cccc(F)c4)nn3)ccc2c1 [3B, 6-(1-(3-Fluorophenyl)-1H-1,2,3-triazol-4-yl)naphthalen-2-yl sulphamate] | 
9.66% | NS(=O)(=O)Oc1ccc2cc(-c3cn(-c4cccc(Cl)c4)nn3)ccc2c1 [3C, 6-(1-(3-Chlorophenyl)-1H-1,2,3-triazol-4-yl)naphthalen-2-yl sulphamate] | 
9.62% | NS(=O)(=O)Oc1ccc2cc(-c3cn(-c4cccc(Br)c4)nn3)ccc2c1 [3D, 6-(1-(3-Bromophenyl)-1H-1,2,3-triazol-4-yl)naphthalen-2-yl sulphamate] | 
18.7% | NS(=O)(=O)Oc1ccc2cc(-c3cn(-c4ccc(Cl)cc4)nn3)ccc2c1 [3F, 6-(1-(4-Chlorophenyl)-1H-1,2,3-triazol-4-yl)naphthalen-2-yl sulphamate] | 
23.1% | NS(=O)(=O)Oc1ccc2cc(-c3cn(-c4ccc(Br)cc4)nn3)ccc2c1 [3G, 6-(1-(4-Bromophenyl)-1H-1,2,3-triazol-4-yl)naphthalen-2-yl sulphamate] | 
 | NS(=O)(=O)Oc1ccc2cc(-c3cn(-c4ccccc4Cl)nn3)ccc2c1 [3I] | remaining activity at 0.5 µM [2]: 16.9%
15.9% | NS(=O)(=O)Oc1ccc2cc(-c3cn(-c4ccccc4Br)nn3)ccc2c1 [3J, 6-(1-(2-Bromophenyl)-1H-1,2,3-triazol-4-yl)naphthalen-2-yl sulphamate] | 
 | NS(=O)(=O)Oc1ccc2cc(-c3cn(-c4cc(F)cc(F)c4)nn3)ccc2c1 [3K, 6-(1-(3,5-Difluorophenyl)-1H-1,2,3-triazol-4-yl)naphthalen-2-yl sulphamate] | remaining activity at 0.5 µM [3]: 14%
 | NS(=O)(=O)Oc1ccc2cc(-c3cn(-c4ccc(F)c(F)c4F)nn3)ccc2c1 [3L, 6-(1-(2,3,4-Trifluorophenyl)-1H-1,2,3-triazol-4-yl)naphthalen-2-yl sulphamate] | remaining activity at 0.5 µM [4]: 7.98%
